Test results reported in ChEMBL document CHEMBL2321863, “Novel Inverse Binding Mode of Indirubin Derivatives Yields Improved Selectivity for DYRK Kinases” (ACS Med Chem Lett, 2013).

Biological target: Glycogen synthase kinase 3 beta (Sus scrofa, UniProt B2LUN4)
Test: Inhibition of porcine brain GSK3beta using YRRAAVPPSPSLSRHSSPHQSpEDEEE as substrate

Glycogen synthase kinase 3 beta, sequence (B2LUN4 whole entry): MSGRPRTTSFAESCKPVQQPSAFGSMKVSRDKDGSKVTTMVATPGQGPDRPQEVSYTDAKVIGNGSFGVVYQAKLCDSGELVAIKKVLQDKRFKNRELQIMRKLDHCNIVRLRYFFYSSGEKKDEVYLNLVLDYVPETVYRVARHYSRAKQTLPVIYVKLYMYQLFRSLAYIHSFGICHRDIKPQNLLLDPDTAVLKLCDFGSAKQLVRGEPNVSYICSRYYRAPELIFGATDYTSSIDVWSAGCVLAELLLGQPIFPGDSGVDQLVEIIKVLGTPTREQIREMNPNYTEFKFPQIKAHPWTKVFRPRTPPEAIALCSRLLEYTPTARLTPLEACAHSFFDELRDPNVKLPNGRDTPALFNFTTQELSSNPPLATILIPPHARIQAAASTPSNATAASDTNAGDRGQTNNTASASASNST

`Cn1c(O)c(-c2[nH]c3ccccc3c2N=O)c2cccc(Br)c21` showed an IC50 greater than 10 µM.
